From patent US10517889B2, “Modulators of SMAD7 expression” (Ionis Pharmaceuticals, Inc., priority 2017, dated 2019)
Strand notation (5' to 3'): a small letter for the sugar, then the base; units joined by * are phosphorothioate-linked, units joined directly phosphodiester-linked; [ ] holds rarer units or linkages, { } end groups; capitals alone tell only the bases. k = constrained ethyl (cEt); [5mC] = 5-methylcytosine; d = 2'-deoxy (DNA)

Test system: human SMAD7 mRNA
Test: Antisense inhibition of human SMAD7 mRNA expression in Hep3B cells by 3-10-3 cEt gapmers, 10,000 nM, electroporation (Example 2)
Format: cell-based
Details: Hep3B cells, 10,000 nM antisense oligonucleotide, electroporation, approximately 24 hours, RT-PCR primer probe set RTS5062, relative to untreated control cells
Procedure: Antisense oligonucleotides were designed to target human SMAD7 mRNA and were tested for their effects on SMAD7 mRNA expression in vitro. The antisense oligonucleotides were tested in a series of experiments that had similar culture conditions, as described below. ION 771576, described in the studies above and which is a 5-10-5 MOE gapmer, was also included in these assays. Cultured Hep3B cells at a density of 20,000 cells per well were transfected using electroporation with 10,000 nM antisense oligonucleotide. After a treatment period of approximately 24 hours, RNA was isolated from the cells and SMAD7 mRNA levels were measured by quantitative real-time PCR. Primer probe set RTS5062 was used to measure human SMAD7 mRNA levels. SMAD7 mRNA levels were adjusted according to total RNA content, as measured by RIBOGREEN®. Results are presented as percent inhibition of SMAD7 mRNA expression, relative to untreated control cells.
The newly designed chimeric antisense oligonucleotides in the Tables below were designed as 3-10-3 cEt gapmers. The gapmers are 16 nucleosides in length, wherein the central gap segment comprises often 2′-deoxynucleosides and is flanked by wing segments on the 5′ direction and the 3′ direction comprising three nucleosides each. Each nucleoside in the 5′ wing segment and each nucleoside in the 3′ wing segment has a cEt sugar modification. The internucleoside linkages throughout each gapmer are phosphorothioate (P═S) linkages. All cytosine residues throughout each gapmer are 5-methylcytosines.
“Start site” indicates the 5′-most nucleoside to which the gapmer is targeted in the human gene sequence. “Stop site” indicates the 3′-most nucleoside to which the gapmer is targeted human gene sequence. […] Some of the oligonucleotides presented were complementary to SMAD7 mRNA sequences RefSeqNo. NM_001190821.1 (designated herein as SEQ ID NO: 3) or RefSeqNo. NM_001190822.1 (designated herein as SEQ ID NO: 4), and are presented in a separate table shown below.

First: 800052 (antisense k[5mC]*k[5mC]*k[5mC]*dT*d[5mC]*dT*dT*d[5mC]*d[5mC]*dG*dG*dG*dA*kG*kG*k[5mC]) [compound 800052]
Second: 799915 (antisense kG*k[5mC]*kT*dG*dA*d[5mC]*dG*d[5mC]*dG*dG*d[5mC]*dT*dT*k[5mC]*k[5mC]*kT) [compound 799915]
The “% Inhibition” value of the first is lower: 0% for the first, 52% for the second.

Compared with “800092 (antisense kA*kT*k[5mC]*d[5mC]*dT*dG*dA*dT*dG*dA*dG*dA*dA*kA*kA*k[5mC]) [compound 800092]”, “799838 (antisense kT*kT*kG*d[5mC]*dA*d[5mC]*d[5mC]*d[5mC]*d[5mC]*d[5mC]*dA*dT*dA*kA*k[5mC]*kT) [compound 799838]” is higher in “% Inhibition” value: 0% for the first, 2% for the second.

Same assay, conditions: Hep3B cells, electroporation with 10,000 nM antisense oligonucleotide, approximately 24 hours, RTS5062, percent inhibition of SMAD7 mRNA relative to untreated control cells

Compared with “799526 (kA*kA*kG*dG*dA*dG*dG*dT*dT*dT*dG*dG*dG*kT*kT*kG; antisense) [compound 799526]”, “799691 (antisense kT*k[5mC]*k[5mC]*d[5mC]*dA*dT*dA*dG*dG*dT*dG*dT*dA*k[5mC]*kA*kA) [compound 799691]” is higher in “% Inhibition” value: 12% for the first, 49% for the second.

Compared with “799606 (kT*kT*kT*dA*d[5mC]*dA*dA*dA*dA*d[5mC]*dT*d[5mC]*dT*k[5mC]*kT*kG; antisense) [compound 799606]”, “799591 (kA*kT*kT*dA*dG*dT*dA*dA*dA*dT*d[5mC]*dA*dA*kG*kA*kG; antisense) [compound 799591]” is higher in “% Inhibition” value: 50% for the first, 56% for the second.

Same assay, conditions: Hep3B cells, electroporation with 10,000 nM antisense oligonucleotide, approximately 24 hours, SMAD7 mRNA by RT-PCR (RTS5062), relative to untreated control cells

Compared with “830132 (antisense kT*kA*k[5mC]*d[5mC]*d[5mC]*dG*d[5mC]*d[5mC]*d[5mC]*dA*d[5mC]*dT*d[5mC]*k[5mC]*k[5mC]*k[5mC]) [compound 830132]”, “798848 (kG*kA*kT*dT*dT*dT*dG*d[5mC]*dT*d[5mC]*d[5mC]*dG*d[5mC]*kA*k[5mC]*k[5mC]; antisense) [compound 798848]” is higher in “% Inhibition” value: 8% for the first, 40% for the second.

Compared with “798815 (k[5mC]*kG*k[5mC]*dA*d[5mC]*d[5mC]*dA*dG*dT*dG*dT*dG*dA*k[5mC]*k[5mC]*kG; antisense) [compound 798815]”, “799351 (kT*kT*kT*dA*dG*d[5mC]*dT*dG*dT*d[5mC]*dA*dG*dA*kT*kA*kA; antisense) [compound 799351]” is lower in “% Inhibition” value: 45% for the first, 31% for the second.

Compared with “798887 (k[5mC]*kT*kG*dA*dT*d[5mC]*dT*dG*d[5mC]*dA*d[5mC]*dG*dG*kT*kA*kA; antisense) [compound 798887]”, “798921 (kG*kG*k[5mC]*d[5mC]*dT*dG*d[5mC]*dT*d[5mC]*dA*dG*d[5mC]*dT*k[5mC]*kA*k[5mC]; antisense) [compound 798921]” is higher in “% Inhibition” value: 26% for the first, 42% for the second.

For “830211 (kA*kG*kA*d[5mC]*d[5mC]*dG*dG*dA*dA*dG*dT*d[5mC]*dT*kT*kG*kT; antisense) [compound 830211]”, the “% Inhibition” value was 30%.

Same assay, conditions: Hep3B cells, electroporation with 10,000 nM antisense oligonucleotide, approximately 24 hours, primer probe set RTS5062, relative to untreated control cells

“798758 (kG*k[5mC]*kT*dG*d[5mC]*dG*d[5mC]*dA*dG*dG*d[5mC]*dT*dG*k[5mC]*kG*k[5mC]; antisense) [compound 798758]” and “799439 (antisense kA*kA*kG*dA*dG*dG*dG*dA*d[5mC]*d[5mC]*dT*d[5mC]*dG*kG*kT*kT) [compound 799439]” are the same in “% inhibition of SMAD7 mRNA expression” value: 0% for the first, 0% for the second.

First: 790655 (k[5mC]*kG*kT*dG*dT*dT*dA*dA*dA*dG*d[5mC]*dT*dG*kA*kG*k[5mC]; antisense) [compound 790655]
Second: 790462 (kG*k[5mC]*kG*d[5mC]*dA*dG*dG*d[5mC]*dG*dA*d[5mC]*dA*dG*k[5mC]*kA*kG; antisense) [compound 790462]
The “% inhibition of SMAD7 mRNA expression” value of the first is lower: 42% for the first, 43% for the second.

Compared with “798787 (kG*kA*kG*dA*d[5mC]*dT*d[5mC]*dT*dA*dG*dT*dT*d[5mC]*kG*k[5mC]*kA; antisense) [compound 798787]”, “799091 (antisense kA*k[5mC]*kT*dG*dG*dG*dT*dG*dA*dG*d[5mC]*dA*dA*kT*kA*k[5mC]) [compound 799091]” is higher in “% inhibition of SMAD7 mRNA expression” value: 20% for the first, 42% for the second.

Compared with “799187 (antisense k[5mC]*kT*kT*d[5mC]*dT*d[5mC]*dT*dT*dG*dT*dT*d[5mC]*dA*kT*kT*kT) [compound 799187]”, “798706 (antisense k[5mC]*kG*kG*d[5mC]*dT*dG*dT*d[5mC]*d[5mC]*dG*dT*d[5mC]*dG*k[5mC]*k[5mC]*k[5mC]) [compound 798706]” is lower in “% inhibition of SMAD7 mRNA expression” value: 17% for the first, 1% for the second.

Compared with “799106 (antisense kT*kT*kT*dT*d[5mC]*dT*dA*dA*dG*dT*d[5mC]*d[5mC]*dG*kG*kG*kA) [compound 799106]”, “798685 (antisense kG*kA*kG*dG*d[5mC]*dG*dA*dG*dG*dA*dG*dA*dA*kA*kA*kG) [compound 798685]” is higher in “% inhibition of SMAD7 mRNA expression” value: 34% for the first, 58% for the second.

Going from “798952 (antisense kT*kA*kT*dT*dT*d[5mC]*dT*d[5mC]*dA*dA*dA*dG*dA*kG*k[5mC]*kG) [compound 798952]” to “799050 (antisense kA*k[5mC]*kA*dG*dG*d[5mC]*d[5mC]*d[5mC]*dG*dT*dG*dT*d[5mC]*k[5mC]*kT*kT) [compound 799050]”, the “% inhibition of SMAD7 mRNA expression” value falls from 61% to 36%.

With “799186 (antisense k[5mC]*kT*kT*dG*dT*dT*d[5mC]*dA*dT*dT*dT*dA*dA*kA*k[5mC]*k[5mC]) [compound 799186]” the “% inhibition of SMAD7 mRNA expression” value was 31%.

Going from “798996 (antisense k[5mC]*kA*k[5mC]*dA*d[5mC]*dT*d[5mC]*dA*d[5mC]*dA*d[5mC]*dT*d[5mC]*kA*k[5mC]*kA) [compound 798996]” to “799174 (antisense kA*kG*kT*d[5mC]*dT*dA*dA*dA*d[5mC]*dA*dT*dG*d[5mC]*kT*k[5mC]*kA) [compound 799174]”, the “% Inhibition” value falls from 49% to 42%.

With “799096 (antisense kA*kA*k[5mC]*d[5mC]*dT*dG*dA*dT*dG*dT*d[5mC]*dA*d[5mC]*k[5mC]*kA*kG) [compound 799096]” the “% Inhibition” value was 30%.

Same assay, conditions: Hep3B cells, electroporation, 10,000 nM antisense oligonucleotide, approximately 24 hours, RTS5062, relative to untreated control cells

First: 799614 (kG*kG*k[5mC]*d[5mC]*dT*dT*dT*dG*dA*dG*d[5mC]*dA*d[5mC]*kA*k[5mC]*k[5mC]; antisense) [compound 799614]
Second: 799817 (antisense kT*kA*k[5mC]*dT*dG*dA*dT*dT*d[5mC]*dA*dT*dG*dA*kG*kG*kG) [compound 799817]
The “% inhibition of SMAD7 mRNA expression” value of the first is lower: 37% for the first, 45% for the second.

Same assay, conditions: Hep3B cells, electroporation, 10,000 nM, approximately 24 hours; 3-10-3 cEt gapmers targeting SEQ ID NO: 3 and 4

First: 799239 (kT*k[5mC]*kA*dG*dT*dT*dG*dG*dT*dT*dT*dG*dA*kG*kA*kA; antisense) [compound 799239]
Second: 790634 (kA*kG*kT*d[5mC]*dA*dG*dT*dT*dG*dG*dT*dT*dT*kG*kA*kG; antisense) [compound 790634]
The “% inhibition of SMAD7 mRNA expression” value of the first is higher: 16% for the first, 0% for the second.

Same assay, conditions: SMAD7 mRNA, Hep3B cells, 10,000 nM antisense oligonucleotide, electroporation, approximately 24 hours, primer probe set RTS5062, relative to untreated control cells

With “772762 (kA*kT*kT*dT*dT*dG*d[5mC]*dT*dA*d[5mC]*d[5mC]*dT*dA*kA*kT*kG; antisense) [compound 772762]” the “% Inhibition” value was 11%.

Same assay, conditions: SMAD7 mRNA, Hep3B cells, electroporation with 10,000 nM antisense oligonucleotide, approximately 24 hours, primer probe set RTS5062, relative to untreated control cells

First: 829968 (kA*kA*k[5mC]*d[5mC]*d[5mC]*d[5mC]*d[5mC]*dA*dG*dG*dG*dA*dA*kT*kG*k[5mC]; antisense) [compound 829968]
Second: 829860 (antisense kG*kT*k[5mC]*dA*dG*d[5mC]*dT*dG*dG*dA*dT*dG*d[5mC]*k[5mC]*kG*k[5mC]) [compound 829860]
The “% Inhibition” value of the first is lower: 30% for the first, 31% for the second.

For “829893 (antisense kT*kG*kA*dT*d[5mC]*dT*dG*d[5mC]*dA*d[5mC]*dG*dG*dT*kA*kA*kA) [compound 829893]”, the “% Inhibition” value was 14%.
